≈ marks a conversion by molar mass, not a printed value.
Experiments:
Experiment in all cases: In vitro antibacterial evaluation: minimum inhibitory concentration (MIC), broth dilution method
Format in all cases: cell-based
Enterococcus sp. = test system: Enterococcus sp.
Outline: (§1)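 Using Muller-Hinton II […] and an inoculum of 5×10^5 CFU/mL, antibiotic dilutions from 64 down to 0.06 μg/mL were tested following NCCLS M7-A2. The MIC is the lowest concentration inhibiting growth, including in methicillin-, penicillin- or vancomycin-resistant clinical isolates.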

Escherichia coli = test system: Escherichia coli
Outline: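 Broth dilution per NCCLS M7-A2 in Muller-Hinton II […], inoculum 5×10^5 CFU/mL, antibiotic tested over 64-0.06 μg/mL. MIC is taken as the lowest concentration that inhibits growth. Panel includes recent clinical isolates resistant to methicillin, penicillin and/or vancomycin.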

Staphylococcus sp. = settings: broth dilution, 18 hours at 35° C.
Outline: as §1

Streptococcus sp. = test system: Streptococcus sp.
Outline: as §1

[1] = broth dilution, inoculum 5×10^5 CFU/mL, 18 hours at 35° C.

In the case of CC(c1ccccc1)C1NC(=O)CNC(=O)C(CO)NC(=O)C(C(O)C2CNC(=N)N2C2OC(CO)C(O)C(O)C2O)NC(=O)C(C(O)C2CNC(=N)N2)NC(=O)C(Cc2ccc(OC3OC(CO)C(OC4OC5COC(c6ccc(-c7cccs7)cc6)OC5C(O)C4O)C(O)C3O)cc2)NC1=O (stereo not drawn) [Example 163, Cyclo[glycyl-β-methylphenylalanyl-O-[4-O-[4,6-O-[4-(2-thienyl)benzylidene]hexopyranosyl]-hexopyranosyl]tyrosyl-3-(2-iminoimidazolidin-4-yl)seryl-3-(3-hexopyranosyl-2-iminoimidazolidin-4-yl)serylseryl]], the “MIC Enterococcus avium (GC 4558)” value (Enterococcus sp.; [1]) is reported as 4 µg/mL (≈ 2.73 µM), the “MIC Enterococcus faecalis (ATCC 29212)” value (Enterococcus sp.; [1]) is reported as 8 µg/mL (≈ 5.46 µM) and the “MIC Enterococcus faecalis (GC 2242)” value (Enterococcus sp.; [1]) is reported as 4 µg/mL (≈ 2.73 µM). The “MIC Enterococcus faecalis (GC 2691)” value (Enterococcus sp.; [1]) was 4 µg/mL (≈ 2.73 µM), the “MIC Enterococcus faecalis (GC 3059)” value (Enterococcus sp.; [1]) was 8 µg/mL (≈ 5.46 µM) and the “MIC Enterococcus faecalis (GC 4552)” value (Enterococcus sp.; [1]) was 8 µg/mL (≈ 5.46 µM). For the same molecule, the “MIC Enterococcus faecalis (GC 4553)” value (Enterococcus sp.; [1]) was 4 µg/mL (≈ 2.73 µM), the “MIC Enterococcus faecalis (GC 4554)” value (Enterococcus sp.; [1]) was 8 µg/mL (≈ 5.46 µM) and the “MIC Enterococcus faecalis (GC 6189)” value (Enterococcus sp.; [1]) was 4 µg/mL (≈ 2.73 µM). For the same molecule, the “MIC Enterococcus faecium (GC 2243)” value (Enterococcus sp.; [1]) was 8 µg/mL (≈ 5.46 µM), the “MIC Enterococcus faecium (GC 4556)” value (Enterococcus sp.; [1]) was 4 µg/mL (≈ 2.73 µM) and the “MIC Enterococcus faecium (GC 4557)” value (Enterococcus sp.; [1]) was 8 µg/mL (≈ 5.46 µM). For the same molecule, the “MIC Enterococcus faecalis (ATCC 29212)” value (Enterococcus sp.; strain ATCC 29212) was 8 µg/mL (≈ 5.46 µM), the “MIC Enterococcus faecalis (GC 2242)” value (Enterococcus sp.; strain GC 2242) was 4 µg/mL (≈ 2.73 µM) and the “MIC Enterococcus faecium (GC 2243)” value (Enterococcus sp.; strain GC 2243) was 8 µg/mL (≈ 5.46 µM). The “MIC Enterococcus faecalis (GC 2691)” value (Enterococcus sp.; strain GC 2691) was 4 µg/mL (≈ 2.73 µM), the “MIC Enterococcus faecalis (GC 3059)” value (Enterococcus sp.; strain GC 3059) was 8 µg/mL (≈ 5.46 µM) and the “MIC Enterococcus faecalis (GC 4552)” value (Enterococcus sp.; strain GC 4552) was 8 µg/mL (≈ 5.46 µM). The “MIC Enterococcus faecalis (GC 4553)” value (Enterococcus sp.; strain GC 4553) was 4 µg/mL (≈ 2.73 µM), the “MIC Enterococcus faecalis (GC 4554)” value (Enterococcus sp.; strain GC 4554) was 8 µg/mL (≈ 5.46 µM) and the “MIC Enterococcus faecium (GC 4556)” value (Enterococcus sp.; strain GC 4556) was 4 µg/mL (≈ 2.73 µM). The “MIC Enterococcus faecium (GC 4557)” value (Enterococcus sp.; strain GC 4557) was 8 µg/mL (≈ 5.46 µM), the “MIC Enterococcus avium (GC 4558)” value (Enterococcus sp.; strain GC 4558) was 4 µg/mL (≈ 2.73 µM) and the “MIC Enterococcus faecalis (GC 6189)” value (Enterococcus sp.; strain GC 6189) was 4 µg/mL (≈ 2.73 µM). The “MIC Escherichia coli (ATCC 25922)” value (Escherichia coli; strain ATCC 25922) was over 64 µg/mL, the “MIC Escherichia coli (GC 4559)” value (Escherichia coli; strain GC 4559) was 64 µg/mL (≈ 43.7 µM) and the “MIC Escherichi coli (GC 4560)” value (Escherichia coli; strain GC 4560) was 8 µg/mL (≈ 5.46 µM). The “MIC Coagulase Negative Staphylococcus (GC 4547)” value (Staphylococcus sp.; 5×10^5 CFU/mL) was 8 µg/mL (≈ 5.46 µM), the “MIC Coagulase Negative Staphylococcus (GC 4548)” value (Staphylococcus sp.; 5×10^5 CFU/mL) was 1 µg/mL (≈ 0.682 µM) and the “MIC Coagulase Negative Staphylococcus (GC 4549)” value (Staphylococcus sp.; 5×10^5 CFU/mL) was 4 µg/mL (≈ 2.73 µM). For the same molecule, the “MIC Coagulase Negative Staphylococcus (GC 4551)” value (Staphylococcus sp.; 5×10^5 CFU/mL) was 2 µg/mL (≈ 1.36 µM), the “MIC Coagulase Negative Staphylococcus (GC 6257)” value (Staphylococcus sp.; 5×10^5 CFU/mL) was 2 µg/mL (≈ 1.36 µM) and the “MIC Staphylococcus aureus (ATCC 29213)” value (Staphylococcus sp.; 5×10^5 CFU/mL) was 4 µg/mL (≈ 2.73 µM). The “MIC Staphylococcus aureus (GC 1131)” value (Staphylococcus sp.; 5×10^5 CFU/mL) was 4 µg/mL (≈ 2.73 µM), the “MIC Staphylococcus aureus (GC 3051)” value (Staphylococcus sp.; 5×10^5 CFU/mL) was 8 µg/mL (≈ 5.46 µM) and the “MIC Staphylococcus aureus (GC 3053)” value (Staphylococcus sp.; 5×10^5 CFU/mL) was 8 µg/mL (≈ 5.46 µM). The “MIC Staphylococcus aureus (GC 4541)” value (Staphylococcus sp.; 5×10^5 CFU/mL) was 4 µg/mL (≈ 2.73 µM), the “MIC Staphylococcus aureus (GC 4542)” value (Staphylococcus sp.; 5×10^5 CFU/mL) was 4 µg/mL (≈ 2.73 µM) and the “MIC Staphylococcus aureus (GC 4544)” value (Staphylococcus sp.; 5×10^5 CFU/mL) was 4 µg/mL (≈ 2.73 µM). The “MIC Staphylococcus aureus (GC 4545)” value (Staphylococcus sp.; 5×10^5 CFU/mL) was 4 µg/mL (≈ 2.73 µM), the “MIC Staphylococcus aureus-SMITH (GC 4543)” value (Staphylococcus sp.; 5×10^5 CFU/mL) was 1 µg/mL (≈ 0.682 µM) and the “MIC Staphylococcus haemolyticus (GC 4546)” value (Staphylococcus sp.; 5×10^5 CFU/mL) was 4 µg/mL (≈ 2.73 µM). For the same molecule, the “MIC Staphylococcus aureus (ATCC 29213)” value (Staphylococcus sp.; strain ATCC 29213) was 4 µg/mL (≈ 2.73 µM), the “MIC Staphylococcus aureus (GC 1131)” value (Staphylococcus sp.; strain GC 1131) was 4 µg/mL (≈ 2.73 µM) and the “MIC Staphylococcus aureus (GC 3051)” value (Staphylococcus sp.; strain GC 3051) was 8 µg/mL (≈ 5.46 µM). For the same molecule, the “MIC Staphylococcus aureus (GC 3053)” value (Staphylococcus sp.; strain GC 3053) was 8 µg/mL (≈ 5.46 µM), the “MIC Staphylococcus aureus (GC 4541)” value (Staphylococcus sp.; strain GC 4541) was 4 µg/mL (≈ 2.73 µM) and the “MIC Staphylococcus aureus (GC 4542)” value (Staphylococcus sp.; strain GC 4542) was 4 µg/mL (≈ 2.73 µM). For the same molecule, the “MIC Staphylococcus aureus-SMITH (GC 4543)” value (Staphylococcus sp.; strain GC 4543) was 1 µg/mL (≈ 0.682 µM), the “MIC Staphylococcus aureus (GC 4544)” value (Staphylococcus sp.; strain GC 4544) was 4 µg/mL (≈ 2.73 µM) and the “MIC Staphylococcus aureus (GC 4545)” value (Staphylococcus sp.; strain GC 4545) was 4 µg/mL (≈ 2.73 µM). For the same molecule, the “MIC Staphylococcus haemolyticus (GC 4546)” value (Staphylococcus sp.; strain GC 4546) was 4 µg/mL (≈ 2.73 µM), the “MIC Coagulase Negative Staphylococcus (GC 4547)” value (Staphylococcus sp.; strain GC 4547) was 8 µg/mL (≈ 5.46 µM) and the “MIC Coagulase Negative Staphylococcus (GC 4548)” value (Staphylococcus sp.; strain GC 4548) was 1 µg/mL (≈ 0.682 µM). The “MIC Coagulase Negative Staphylococcus (GC 4549)” value (Staphylococcus sp.; strain GC 4549) was 4 µg/mL (≈ 2.73 µM), the “MIC Coagulase Negative Staphylococcus (GC 4551)” value (Staphylococcus sp.; strain GC 4551) was 2 µg/mL (≈ 1.36 µM) and the “MIC Coagulase Negative Staphylococcus (GC 6257)” value (Staphylococcus sp.; strain GC 6257) was 2 µg/mL (≈ 1.36 µM). The “MIC Streptococcus agalactiae (GC 4564)” value (Streptococcus sp.; [1]) was under 0.5 µg/mL, the “MIC Streptococcus pneumoniae (ATCC 6301)” value (Streptococcus sp.; [1]) was under 0.5 µg/mL and the “MIC Streptococcus pneumoniae (GC 1894)” value (Streptococcus sp.; [1]) was under 0.5 µg/mL. The “MIC Streptococcus pneumoniae (GC 4565)” value (Streptococcus sp.; [1]) was 1 µg/mL (≈ 0.682 µM), the “MIC Streptococcus pyogenes (GC 4563)” value (Streptococcus sp.; [1]) was under 0.5 µg/mL and the “MIC Streptococcus pneumoniae (ATCC 6301)” value (Streptococcus sp.; strain ATCC 6301) was under 0.5 µg/mL. The “MIC Streptococcus pneumoniae (GC 1894)” value (Streptococcus sp.; strain GC 1894) was under 0.5 µg/mL, the “MIC Streptococcus pyogenes (GC 4563)” value (Streptococcus sp.; strain GC 4563) was under 0.5 µg/mL and the “MIC Streptococcus agalactiae (GC 4564)” value (Streptococcus sp.; strain GC 4564) was under 0.5 µg/mL. For the same molecule, the “MIC Streptococcus pneumoniae (GC 4565)” value (Streptococcus sp.; strain GC 4565) was 1 µg/mL (≈ 0.682 µM).
